We go through ten compounds from US20250154141A1 (University of Florida Research Foundation, Incorporated, priority 2021, published 2025).

One assay deals with MOLT-4. The experiment in a line: Cell viability assay (MTS) in MOLT-4 cells. It counts as cell-based. Conditions: Homo sapiens, MOLT-4, 48 hr, MTS, read-out: Anti-Cancer Activity IC50 (48 hr) MOLT-4. As to the method: (§1) Acute lymphoblastic leukemia cells (MOLT-4 and RS4; 11) were incubated with increasing concentrations of Bcl-xL degraders for 48 h. Cell viability was measured by tetrazolium-based MTS assay.

The next assay deals with RS4; 11. Briefly: Cell viability assay (MTS) in RS4; 11 cells. The format is cell-based. Also on record: Anti-Cancer Activity IC50 (48 hr) RS4; 11: scale not given here. Conditions: 48 hr, MTS; for IC50: Homo sapiens, RS4-11, read-out: Anti-Cancer Activity IC50 (48 hr) RS4, 11. As for the experimental part: as §1

Structures are written as SMILES. Read-outs that look alike come from different tables or passages of the source. A value given as a limit tells only on which side of the number the result lay.

The term IC50 denotes the concentration that inhibits the measured activity by half. For the compound `Cc1ncsc1-c1ccc([C@H](C)NC(=O)[C@@H]2C[C@@H](O)CN2C(=O)[C@@H](NC(=O)CCCCCCC(=O)N2CCN(CC3(C)CCC(c4ccc(Cl)cc4)=C(CN4CCN(c5ccc(C(=O)NS(=O)(=O)c6ccc(N[C@H](CCN(C)C7CCC7)CSc7ccccc7)c([N+](=O)[O-])c6)cc5)CC4)C3)CC2)C(C)(C)C)cc1` (stereo partly drawn) [Compound 36, (2S,4R)-1-((2S)-2-(8-(4-((4′-chloro-6-((4-(4-(((4-(((R)-4-(cyclobutyl(methyl)amino)-1-(phenylthio)butan-2-yl)amino)-3-nitrophenyl)sulfonyl)carbamoyl)phenyl)piperazin-1-yl)methyl)-4-methyl-2,3,4,5-tetrahydro-[1,1′-biphenyl]-4-yl)methyl)piperazin-1-yl)-8-oxooctanamido)-3,3-dimethylbutanoyl)-4-hydroxy-N—((S)-1-(4-(4-methylthiazol-5-yl)phenyl)ethyl)pyrrolidine-2-carboxamide], in the assay on MOLT-4 (Table 2), the IC50 was in the range of 20 to 100 nM. The “Anti-Cancer Activity IC50 (48 hr) RS4; 11” value with RS4; 11 (Table 2) is listed as “++ ++”.

Regarding `Cc1ncsc1-c1ccc([C@H](C)NC(=O)[C@@H]2C[C@@H](O)CN2C(=O)[C@@H](NC(=O)CCCCCCC(=O)N2CCN(C[C@]3(C)CCC(c4ccc(Cl)cc4)=C(CN4CCN(c5ccc(C(=O)NS(=O)(=O)c6ccc(N[C@H](CCN7CCOC(C)C7)CSc7ccccc7)c(S(=O)(=O)C(F)(F)F)c6)cc5)CC4)C3)CC2)C(C)(C)C)cc1` (stereo partly drawn) [Compound 91, (2S,4R)-1-((2S)-2-(8-(4-(((4R)-4′-chloro-4-methyl-6-((4-(4-(((4-(((2R)-4-(2-methylmorpholino)-1-(phenylthio)butan-2-yl)amino)-3-((trifluoromethyl)sulfonyl)phenyl)sulfonyl)carbamoyl)phenyl)piperazin-1-yl)methyl)-2,3,4,5-tetrahydro-[1,1′-biphenyl]-4-yl)methyl)piperazin-1-yl)-8-oxooctanamido)-3,3-dimethylbutanoyl)-4-hydroxy-N—((S)-1-(4-(4-methylthiazol-5-yl)phenyl)ethyl)pyrrolidine-2-carboxamide], the IC50 in the assay with MOLT-4 (Table 2) and with RS4; 11 (Table 2) was under 20 nM throughout.

For `Cc1ncsc1-c1ccc([C@H](C)NC(=O)[C@@H]2C[C@@H](O)CN2C(=O)[C@@H](NC(=O)CCCCCCC(=O)N2CCN(C[C@]3(C)CCC(c4ccc(Cl)cc4)=C(CN4CCN(c5ccc(C(=O)NS(=O)(=O)c6ccc(N[C@H](CCN7CCOC[C@H]7C)CSc7ccccc7)c(S(=O)(=O)C(F)(F)F)c6)cc5)CC4)C3)CC2)C(C)(C)C)cc1` [Compound 89, (2S,4R)-1-((S)-2-(8-(4-(((R)-4′-chloro-4-methyl-6-((4-(4-(((4-(((R)-4-((R)-3-methylmorpholino)-1-(phenylthio)butan-2-yl)amino)-3-((trifluoromethyl)sulfonyl)phenyl)sulfonyl)carbamoyl)phenyl)piperazin-1-yl)methyl)-2,3,4,5-tetrahydro-[1,1′-biphenyl]-4-yl)methyl)piperazin-1-yl)-8-oxooctanamido)-3,3-dimethylbutanoyl)-4-hydroxy-N—((S)-1-(4-(4-methylthiazol-5-yl)phenyl)ethyl)pyrrolidine-2-carboxamide], the IC50 is 20 to 100 nM with MOLT-4 (Table 2) and under 20 nM in the assay on RS4; 11 (Table 2).

As to `Cc1ncsc1-c1ccc([C@H](C)NC(=O)[C@@H]2C[C@@H](O)CN2C(=O)[C@@H](NC(=O)CCCCCC(=O)N2CCN(CC3CCN(CC4(C)CCC(c5ccc(Cl)cc5)=C(CN5CCN(c6ccc(C(=O)NS(=O)(=O)c7ccc(N[C@H](CCN8CCOCC8)CSc8ccccc8)c(S(=O)(=O)C(F)(F)F)c7)cc6)CC5)C4)CC3)CC2)C(C)(C)C)cc1` (some centres unmarked) [Compound 19], the IC50 in the assay with MOLT-4 (Table 2) was under 20 nM; in the assay with RS4; 11 (Table 2) it was 20 to 100 nM.

Regarding `Cc1ncsc1-c1ccc([C@H](C)NC(=O)[C@@H]2C[C@@H](O)CN2C(=O)[C@@H](NC(=O)CCCCCCC(=O)N2CCN(C[C@]3(C)CCC(c4ccc(Cl)cc4)=C(CN4CCN(c5ccc(C(=O)NS(=O)(=O)c6ccc(N[C@H](CCN7CCOCC78CC8)CSc7ccccc7)c(S(=O)(=O)C(F)(F)F)c6)cc5)CC4)C3)CC2)C(C)(C)C)cc1` [Compound 92], the IC50 is 500 to 10000 nM in the assay with MOLT-4 (Table 2) and 20 to 100 nM in the assay on RS4; 11 (Table 2).

On to `Cc1ncsc1-c1ccc([C@H](C)NC(=O)[C@@H]2C[C@@H](O)CN2C(=O)[C@@H](NC(=O)CCCCCCS(=O)(=O)N2CCN(C[C@]3(C)CCC(c4ccc(Cl)cc4)=C(CN4CCN(c5ccc(C(=O)NS(=O)(=O)c6ccc(N[C@H](CCN7CCCOCC7)CSc7ccccc7)c(S(=O)(=O)C(F)(F)F)c6)cc5)CC4)C3)CC2)C(C)(C)C)cc1` [Compound 96, (2S,4R)-1-((S)-2-(7-((4-(((R)-6-((4-(4-(((4-(((R)-4-(1,4-oxazepan-4-yl)-1-(phenylthio)butan-2-yl)amino)-3-((trifluoromethyl)sulfonyl)phenyl)sulfonyl)carbamoyl)phenyl)piperazin-1-yl)methyl)-4′-chloro-4-methyl-2,3,4,5-tetrahydro-[1,1′-biphenyl]-4-yl)methyl)piperazin-1-yl)sulfonyl)heptanamido)-3,3-dimethylbutanoyl)-4-hydroxy-N—((S)-1-(4-(4-methylthiazol-5-yl)phenyl)ethyl)pyrrolidine-2-carboxamide], for which the IC50 with MOLT-4 (Table 2) and in the assay on RS4; 11 (Table 2) was under 20 nM each time.

For the compound `Cc1ncsc1-c1ccc([C@H](C)NC(=O)[C@@H]2C[C@@H](O)CN2C(=O)[C@@H](NC(=O)COCCCNC(=O)c2ccc(N3CCN(C[C@]4(C)CCC(c5ccc(Cl)cc5)=C(CN5CCN(c6ccc(C(=O)NS(=O)(=O)c7ccc(N[C@H](CCN8CCCOCC8)CSc8ccccc8)c(S(=O)(=O)C(F)(F)F)c7)cc6)CC5)C4)CC3)nn2)C(C)(C)C)cc1` [Compound 111], the IC50 with MOLT-4 (Table 2A) and in the assay with RS4; 11 (Table 2A) was under 20 nM throughout.

As for `Cc1ncsc1-c1ccc([C@H](C)NC(=O)[C@@H]2C[C@@H](O)CN2C(=O)[C@@H](NC(=O)CCCCCCC(=O)N2CCN(C[C@]3(C)CCC(c4ccc(Cl)cc4)=C(CN4CCN(c5ccc(C(=O)NS(=O)(=O)c6ccc(N[C@H](CCN7CCOC8(CCC8)C7)CSc7ccccc7)c(S(=O)(=O)C(F)(F)F)c6)cc5)CC4)C3)CC2)C(C)(C)C)cc1` [Compound 93], the 50% inhibitory concentration (IC50) in the assay on MOLT-4 (Table 2) and in the assay with RS4; 11 (Table 2) was 500 to 10000 nM throughout.

`Cc1ncsc1-c1ccc([C@H](C)NC(=O)[C@@H]2C[C@@H](O)CN2C(=O)[C@@H](NC(=O)CCCCC(=O)N2CCC(N3CCN(C[C@]4(C)CCC(c5ccc(Cl)cc5)=C(CN5CCN(c6ccc(C(=O)NS(=O)(=O)c7ccc(N[C@H](CCN8CCCOCC8)CSc8ccccc8)c(S(=O)(=O)C(F)(F)F)c7)cc6)CC5)C4)CC3)CC2)C(C)(C)C)cc1` [Compound 120]: the IC50 in the assay on MOLT-4 (Table 2A) and in the assay on RS4; 11 (Table 2A) was under 20 nM throughout.

As for `Cc1ncsc1-c1ccc([C@H](C)NC(=O)[C@@H]2C[C@@H](O)CN2C(=O)[C@@H](NC(=O)COCCOCc2cn(CCCC(=O)NCC3(C)CCC(c4ccc(Cl)cc4)=C(CN4CCN(c5ccc(C(=O)NS(=O)(=O)c6ccc(N[C@H](CCN7CCOCC7)CSc7ccccc7)c(S(=O)(=O)C(F)(F)F)c6)cc5)CC4)C3)nn2)C(C)(C)C)cc1` (some centres unmarked) [Compound 23], the IC50 in the assay on MOLT-4 (Table 2) and with RS4; 11 (Table 2) was 500 to 10000 nM each time.
